# Assay results published in publication PMC11079024, “Identification of a family of species-selective complex I inhibitors as potential anthelmintics” (Nature Communications, 2024).
# pIC50: −log10 of the molar value. Where “and” joins values, the source holds several entries; their conditions need not be identical. Equal entries are not always repeated.
# Target: C. elegans (N2) complex I (NADH:ubiquinone oxidoreductase) (Caenorhabditis elegans, UniProt P24887+Q93873+Q94360)
# Test: biochemical
# Type: biochemical
# Summary of the method: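 Activity expressed as percent of solvent control. Complex I rate came from DCIP reduction at 600 nm (initial linear slope, 15 min) with NADH and decylubiquinone as substrates, plus antimycin A and KCN, in pH 7.5 KPi/BSA buffer. Isolated, thrice freeze-thawed mitochondria used at 0.2 mg/mL.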
# C. elegans (N2) complex I (NADH:ubiquinone oxidoreductase), sequence (Q94360 17-199): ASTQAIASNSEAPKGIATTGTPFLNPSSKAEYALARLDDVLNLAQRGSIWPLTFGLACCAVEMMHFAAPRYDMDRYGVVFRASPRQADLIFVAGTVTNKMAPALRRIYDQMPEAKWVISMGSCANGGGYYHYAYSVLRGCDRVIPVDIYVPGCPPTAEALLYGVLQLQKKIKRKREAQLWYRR
# C. elegans (N2) complex I (NADH:ubiquinone oxidoreductase), sequence (P24887 whole entry): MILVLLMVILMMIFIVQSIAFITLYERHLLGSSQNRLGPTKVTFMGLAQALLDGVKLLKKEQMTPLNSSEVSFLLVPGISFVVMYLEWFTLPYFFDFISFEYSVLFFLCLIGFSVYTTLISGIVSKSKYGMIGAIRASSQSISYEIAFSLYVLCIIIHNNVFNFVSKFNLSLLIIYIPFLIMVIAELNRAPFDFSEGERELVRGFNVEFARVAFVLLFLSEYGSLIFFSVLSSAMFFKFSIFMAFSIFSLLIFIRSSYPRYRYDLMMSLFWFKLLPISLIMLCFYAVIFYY
# C. elegans (N2) complex I (NADH:ubiquinone oxidoreductase), sequence (Q93873 31-482): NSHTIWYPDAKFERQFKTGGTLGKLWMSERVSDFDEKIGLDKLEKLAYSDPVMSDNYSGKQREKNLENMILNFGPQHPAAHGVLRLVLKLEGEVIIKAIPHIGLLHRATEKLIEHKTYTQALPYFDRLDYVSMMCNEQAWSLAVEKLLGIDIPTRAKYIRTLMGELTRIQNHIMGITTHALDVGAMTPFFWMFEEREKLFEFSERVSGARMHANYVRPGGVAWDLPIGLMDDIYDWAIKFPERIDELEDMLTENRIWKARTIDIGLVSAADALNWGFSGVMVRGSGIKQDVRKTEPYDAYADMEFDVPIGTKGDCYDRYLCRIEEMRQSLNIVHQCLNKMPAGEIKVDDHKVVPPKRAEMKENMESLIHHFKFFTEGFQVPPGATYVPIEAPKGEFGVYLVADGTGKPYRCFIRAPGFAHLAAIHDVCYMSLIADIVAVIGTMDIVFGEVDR
smiles,measurement,setting,value
O=C(NCCc1ccc(Cl)cc1)c1ccccc1C(F)(F)F [Wact-11],% Activity Complex I,"100 µM compound, relative to solvent control, mean (SEM)",84.83 (1.45) %
same,CI Activity,"100 μM inhibitor, in vitro activity relative to solvent control, N2 C. elegans mitochondria, Mean",84.830%
same,"Percent in vitro activity, Complex I (single replicate Rep1-Rep4)","100 μM of NPD compound, C. elegans mitochondria, individual biological replicates",83.274% and 93.104% and 79.669%
same,"Percent in vitro activity, Complex I (Mean)","100 μM of NPD compound, C. elegans mitochondria, mean of four biological replicates",84.830%
CCCn1c(COc2ccc(C)cc2)nc2ccccc21 [Compound 6944471],activity at 0.0001 µM,"Dose 0.0001 µM, read-out: C. elegans mitochondrial complex I activity",95.2%
same,activity at 0.0005 µM,"Dose 0.0005 µM, read-out: C. elegans mitochondrial complex I activity",103%
same,activity at 0.001 µM,"Dose 0.001 µM, read-out: C. elegans mitochondrial complex I activity",96.6%
same,activity at 0.0025 µM,"Dose 0.0025 µM, read-out: C. elegans mitochondrial complex I activity",100%
same,activity at 0.005 µM,"Dose 0.005 µM, read-out: C. elegans mitochondrial complex I activity",90.8%
same,activity at 0.013 µM,"Dose 0.013 µM, read-out: C. elegans mitochondrial complex I activity",108%
same,activity at 0.025 µM,"Dose 0.025 µM, read-out: C. elegans mitochondrial complex I activity",106%
same,activity at 0.063 µM,"Dose 0.063 µM, read-out: C. elegans mitochondrial complex I activity",111%
same,activity at 0.125 µM,"Dose 0.125 µM, read-out: C. elegans mitochondrial complex I activity",123%
same,activity at 0.313 µM,"Dose 0.313 µM, read-out: C. elegans mitochondrial complex I activity",103%
same,activity at 0.625 µM,"Dose 0.625 µM, read-out: C. elegans mitochondrial complex I activity",113%
same,activity at 1.5 µM,"Dose 1.5 µM, read-out: C. elegans mitochondrial complex I activity",107%
same,activity at 3 µM,"Dose 3 µM, read-out: C. elegans mitochondrial complex I activity",96.1%
same,activity at […],"Dose 7.5 µM, read-out: C. elegans mitochondrial complex I activity",108%
same,activity at 15 µM,"Dose 15 µM, read-out: C. elegans mitochondrial complex I activity",88.5%
same,activity at 37.5 µM,"Dose 37.5 µM, read-out: C. elegans mitochondrial complex I activity",89.5%
same,activity at 75 µM,"Dose 75 µM, read-out: C. elegans mitochondrial complex I activity",64.7%
same,pIC50,"wild-type C. elegans mitochondria, estimated from fitted dose-response curves, read-out: C. elegans Complex I IC50",< 4.12
